Laboratory results as given in publication PMC6918900, “Concentration-Dependent Activity of Hydromethylthionine on Cognitive Decline and Brain Atrophy in Mild to Moderate Alzheimer’s Disease” (Journal of Alzheimer's Disease, 2019).
Values joined by “and” are separate entries in the source; they are usually repeats but may differ in a detail not shown here. Equal entries are not always repeated. Where two headings read alike, the source gives them in different places.

Assays:
[1] = earlier Phase II study; cited from earlier work
[2] = mice; cited from earlier work
[3] = Estimated steady state brain concentration of LMT; design: species or system human; conditions: corresponding to 0.3–0.8 ng/ml in plasma
[4] = elderly humans; cited from earlier work
[5] = tested on: tau transgenic mouse models; conditions: dose of 9 mg/kg/day; cited from earlier work
[6] = tested on: electron transfer chain; design: method as in PMID 17928358, PMID 22419586; conditions: supplementary electron carrier in the electron transfer chain; cited from earlier work
[7] = tested on: autophagy; design: method as in PMID 26572258, PMID 22361619; conditions: cited from earlier work
[8] = tested on: tangle filaments isolated from AD brain tissues; design: method as in PMID 25759392, PMID 8855335; conditions: at a similar molar ratio (tau:LMT 1 : 0.1); cited from earlier work

CN(C)c1ccc2nc3ccc(=[N+](C)C)cc-3sc2c1 [MTC, methylthioninium chloride]
minimum effective dose [1]: 138 mg/day

CN(C)c1ccc2c(c1)Sc1cc(N(C)C)ccc1N2 [LMT, leuco-methylthioninium]
half-life [2]: 4 h
estimated steady state concentration in the brain [3]: 6–16 ng/ml and 0.021–0.056 μM
half-life [4]: 37 h
effect on tau aggregation pathology and behavioral deficits [5]: reduces tau aggregation pathology and associated behavioral deficits

CN(C)c1ccc2nc3ccc(=[N+](C)C)cc-3sc2c1 [MT moiety, methylthioninium]
concentrations enhancing mitochondrial activity [6]: 10 to 100 nM
concentration range enhancing autophagy [7]: 10 to 20 nM
effect on proteolytic stability of tangle filaments [8]: reverse the proteolytic stability of tangle filaments
